The record followed here is US20220194939A1, “Novel compounds and methods of use treating fructose-related disorders or diseases” (Colorado Research Partners, LLC, priority 2019, published 2022).

Counter-ions that a name gives are not always drawn.

The experiment concerns the target T1, KHK (Homo sapiens, UniProt P50053).
T1 construct: (His)6 tag (N); thrombin cleavage site (N); made in house; host or cells: E. coli BL-21 (DE3)
T1 sequence (P50053 1-298): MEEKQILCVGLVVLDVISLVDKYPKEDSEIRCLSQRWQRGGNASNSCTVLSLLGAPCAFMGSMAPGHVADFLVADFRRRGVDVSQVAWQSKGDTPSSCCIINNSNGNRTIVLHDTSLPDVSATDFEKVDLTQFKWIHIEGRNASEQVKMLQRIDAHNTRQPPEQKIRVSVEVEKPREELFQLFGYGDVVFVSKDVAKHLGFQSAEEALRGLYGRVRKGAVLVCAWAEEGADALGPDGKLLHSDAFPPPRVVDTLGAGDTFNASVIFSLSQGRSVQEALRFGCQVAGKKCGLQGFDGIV
Put plainly: coupled enzyme assay for KHK activity. Format: biochemical. Particulars: purified human recombinant KHK, PK/LDH coupled assay, A340 at 25° C., 0.1 mM ATP, 0.2 mM fructose; isoform (KHK-C or KHK-A) not given. An excerpt: Specific coupled enzyme screening assays were developed for KHK-C and KHK-A using recombinant proteins. Purified human recombinant KHK-C and KHK-A were produced using by expression in E. coli BL-21 (DE3) using IPTG induction as a His-tagged fusion proteins and purified using Ni-NTA chromatography on His-Trap FF columns. For KHK-C, the coding region from NCBI refseq number NM_006488 was inserted at the Nde I site of pET28a(+) vector, which puts it downstream from an amino-terminal (His)6 tag and a thrombin cleavage site. The same was done for KHK-A using the coding regions from NCBI refseq number NM_000221.2. The protein was expressed in BL-21 (DE3) using IPTG induction and purified using Ni-NTA (GE His Trap FF) column. The protein was washed with 100 column volumes, eluted with 3 column volumes, and dialyzed with HEPES, pH 7.4 buffers containing 20, 500, and 0 mM imidazole, respectively. The dialysate was concentrated by ultrafiltration (10kD MWCO) to >15 mg/mL protein. The protein prep was >95% pure on SDS-PAGE and the molecular weight was confirmed by relative mobility to be 33,730 Da (34,826 expected).
The assay uses the product of the KHK reaction, ADP, to drive a signal measured in real time for measuring the reaction rate. This consists of a 3-step, coupled-enzyme process by which pyruvate kinase (PK), which converts the ADP from the KHK reaction along with phosphoenolpyruvate (PEP) to ATP and pyruvate, respectively. The pyruvate is converted along with NADH to lactate and NAD+ by lactate dehydrogenase (LDH). The disappearance of NADH is measured kinetically by monitoring A340 at 25° C. for 15 minutes. The enzymatic assay was carried out in a total reaction volume of 200 μL containing 33 mM triethanolamine-HCl, pH 7.4, 6 mM MgCl2, 100 mM KCl, 0.1 mM ATP, 1.33 mM PEP, 0.3 mM NADH, 0.2-1.0 U of PK, 0.2-1.0 U of LDH, and 150-240 nM KHK-C or KHK-A (0.01-0.02 U). Fructose was added to initiate the reactions to 0.2 mM, except for the no fructose controls which utilized water. This high-throughput assay was used to identify inhibitors that have an IC50 value<1 μM for KHK-C and to confirm that those values for KHK-A were not more than 2-fold lower.
For orientation: IC50 means the midpoint of a concentration-inhibition curve. On to `Cc1cccc(-n2ncc3ccc(NC(=O)[C@H](CN)CO)cc32)c1` [Compound 4, (R)-3-amino-2-(hydroxymethyl)-N-(1-(m-tolyl)-1H-indazol-6-yl)propanamide hydrochloride], for which the IC50 was determined as 620 nM. Regarding `Cc1cccc(-n2nnc3ccc(NC(=O)[C@@H](N)CO)cc32)c1` [Compound 40, (S)-2-amino-3-hydroxy-N-(1-(m-tolyl)-1H-benzo[d][1,2,3]triazol-6-yl)propanamide hydrochloride], the IC50 turned out to be 140 nM. Regarding `Cc1cccc(-n2ncc3ccc(NC(=O)[C@@H](C)N)cc32)c1` [Compound 7, (R)-2-amino-N-(1-(m-tolyl)-1H-indazol-6-yl)propanamide hydrochloride], the IC50 came to 270 nM. For the compound `CCOC(=O)N[C@@H](CO)C(=O)Nc1ccc2cnn(-c3cccc(C)c3)c2c1` [Compound 36, (S)-ethyl (3-hydroxy-1-oxo-1-((1-(m-tolyl)-1H indazol-6-yl)amino)propan-2-yl)carbamate], the IC50 worked out at 400 nM. Turning to `CCCCCCCC(=O)OC[C@H](N)C(=O)Nc1ccc2cnn(-c3cccc(C)c3)c2c1` [Compound 24, (S)-2-amino-3-oxo-3-((1-(m-tolyl)-1H-indazol-6-yl)amino)propyl octanoate hydrochloride], the half-maximal inhibitory concentration (IC50) is 12000 nM.

For `Cc1cccc(-n2ncc3ccc(NC(=O)[C@@H](N)[C@@H](C)O)cc32)c1` [Compound 20, (2S,3R)-2-amino-3-hydroxy-N-(1-(m-tolyl)-1H-indazol-6-yl)butanamide hydrochloride], the IC50 was found to be 720 nM.

As for `Cc1cccc(-n2ncc3ccc(NC(=O)[C@H]4CC[C@@H]4N)cc32)c1` (relative stereo) [Compound 9, trans-2-amino-N-(1-(m-tolyl)-1H-indazol-6-yl)cyclobutanecarboxamide hydrochloride], the IC50 turned out to be 670 nM. For the compound `Cc1cccc(-n2ncc3ccc(NC(=O)[C@H](CO)NC(=O)OC(C)C)cc32)c1` [Compound 37, (S)-isopropyl (3-hydroxy-1-oxo-1-((1-(m-tolyl)-1H-indazol-6-yl)amino)propan-2-yl)carbamate], the IC50 came out at 4000 nM. For `Cc1cccc(-n2ncc3ccc(NC(=O)C(N)C(=O)O)cc32)c1` (stereo not shown) [Compound 39, 2-amino-3-oxo-3-((1-(m-tolyl)-1H-indazol-6-yl)amino)propanoic acid hydrochloride], the IC50 is 700 nM. On to `Cc1cccc(-n2ncc3c(F)cc(NC(=O)[C@H]4NCC[C@@H]4O)cc32)c1` [Compound 19, (2S,3S)-N-(4-fluoro-1-(m-tolyl)-1H-indazol-6-yl)-3-hydroxypyrrolidine-2-carboxamide hydrochloride], for which the IC50 was found to be 520 nM. In the case of `CCc1nn(-c2cccc(C)c2)c2cc(NC(=O)[C@@H](N)CO)c(C)cc12` [Compound 46, (S)-2-amino-N-(3-ethyl-5-methyl-1-(m-tolyl)-1H-indazol-6-yl)-3-hydroxypropanamide hydrochloride], the IC50 was found to be 1900 nM. With `Cc1cccc(-n2ncc3ccc(NC(=O)[C@@](C)(N)CO)cc32)c1` [Compound 22, (S)-2-amino-3-hydroxy-2-methyl-N-(1-(m-tolyl)-1H-indazol-6-yl)propanamide hydrochloride], the IC50 is 420 nM. The figure for `Cc1cccc(-n2nc(C(F)F)c3ccc(NC(=O)[C@@H](N)CO)cc32)c1` [Compound 48, (S)-2-amino-N-(3-(difluoromethyl)-1-(m-tolyl)-1H-indazol-6-yl)-3-hydroxypropanamide hydrochloride] is 460 nM.
